In patent publication US20150105252A1, “SUBSTITUTED PYRAZOLES AS HERBICIDES” (E I DU PONT DE NEMOURS AND COMPANY, priority 2013, published 2015):

Legend:
foxtail, giant [1] = experiment: Test A preemergence; format: in vivo, Setaria faberii; settings: preemergence; for Foxtail, Giant plant response rating (0 to 100 scale): 125 g ai/ha, visual injury approx. 10 days after treatment; for Foxtail, Giant plant response rating: 500 g ai/ha, visual injury after approx. 10 days, 0 to 100 scale (0 no effect, 100 complete control)
Summary of the method: (§1)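 Injury readout: eye-scored versus untreated controls, 0 to 100. Exposure period: ~10 days, greenhouse. Application: soil-directed spray over sown seed (pre) or spray on seedlings 2–10 cm tall with one or two leaves (post), compound carried in non-phytotoxic solvent including surfactant.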

pigweed [2] = experiment: Test A preemergence; format: in vivo, Amaranthus retroflexus; settings: preemergence; for Pigweed plant response rating (0 to 100 scale): 125 g ai/ha, visual injury approx. 10 days after treatment; for Pigweed plant response rating: 500 g ai/ha, visual injury after approx. 10 days, 0 to 100 scale (0 no effect, 100 complete control)
Summary of the method: as §1

crabgrass, large = experiment: Test A postemergence; format: in vivo, Digitaria sanguinalis
Summary of the method: as §1

corn = experiment: Test A postemergence; format: in vivo, Zea mays
Summary of the method: as §1

blackgrass [3] = experiment: Test C preemergence; format: in vivo, Alopecurus myosuroides; settings: preemergence; for Plant response rating, Blackgrass: 125 g ai/ha, scale 0 to 100, 0 = no effect, 100 = complete control
Summary of the method: (§2)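 Herbicidal effect is expressed as percent visual control (0–100) judged against untreated plants 13 to 15 days after treatment in the greenhouse. Preemergence pots contained seeds in a soil–sand blend; postemergence plants, 2–18 cm tall, grew in peat-based planting medium.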

galium = experiment: Test C preemergence; format: in vivo, Galium aparine; settings: preemergence; for Plant response rating, Galium: 125 g ai/ha, scale 0 to 100, 0 = no effect, 100 = complete control
Summary of the method: as §2

johnsongrass = experiment: Test C preemergence; format: in vivo, Sorghum halepense; settings: preemergence; for Plant response rating, Johnsongrass: 125 g ai/ha, scale 0 to 100, 0 = no effect, 100 = complete control
Summary of the method: as §2

pigweed [4] = experiment: Test C preemergence; format: in vivo, Amaranthus retroflexus; settings: preemergence; for Plant response rating, Pigweed: 125 g ai/ha, scale 0 to 100, 0 = no effect, 100 = complete control
Summary of the method: as §2

blackgrass [5] = experiment: Test C postemergence; format: in vivo, Alopecurus myosuroides; settings: for Plant response rating (scale of 0 to 100 where 0 is no effect and 100 is complete control), Blackgrass: Postemergence, 31 g ai/ha, visually evaluated after 13 to 15 days; for Blackgrass plant response rating / Plant response rating, Blackgrass: postemergence; for Blackgrass plant response rating: 62 g ai/ha, scale 0 to 100
Summary of the method: as §2

wheat = experiment: Test C postemergence; format: in vivo, Triticum aestivum; settings: for Plant response rating, Wheat / Wheat plant response rating: postemergence; for Plant response rating, Wheat: 250 g ai/ha, scale 0 to 100 (0 no effect, 100 complete control); for Wheat plant response rating: scale 0 to 100
Summary of the method: as §2

foxtail, giant [6] = experiment: Test C postemergence; format: in vivo, Setaria faberii; settings: for Plant response rating (scale of 0 to 100 where 0 is no effect and 100 is complete control), Foxtail, Giant: Postemergence, 31 g ai/ha, visually evaluated after 13 to 15 days; for Foxtail, Giant plant response rating / Plant response rating, Foxtail, Giant: postemergence; for Foxtail, Giant plant response rating: 62 g ai/ha, scale 0 to 100
Summary of the method: as §2

pigweed [7] = experiment: Test C postemergence; format: in vivo, Amaranthus retroflexus; settings: for Pigweed plant response rating / Plant response rating, Pigweed: postemergence; for Pigweed plant response rating: 62 g ai/ha, scale 0 to 100
Summary of the method: as §2

ragweed = experiment: Test C postemergence; format: in vivo, Ambrosia elation; settings: for Plant response rating, Ragweed: postemergence
Summary of the method: as §2

soybean = experiment: Test C postemergence; format: in vivo, Glycine max; settings: for Plant response rating, Soybean / Soybean plant response rating: postemergence; for Plant response rating, Soybean: 250 g ai/ha, scale 0 to 100 (0 no effect, 100 complete control); for Soybean plant response rating: 125 g ai/ha, scale 0 to 100, 0 no effect, 100 complete control
Summary of the method: as §2

barnyardgrass = experiment: Test C postemergence; format: in vivo, Echinochloa crus-galli; settings: for Plant response rating (scale of 0 to 100 where 0 is no effect and 100 is complete control), Barnyardgrass: Postemergence, 31 g ai/ha, visually evaluated after 13 to 15 days; for Barnyardgrass plant response rating / Plant response rating, Barnyardgrass: postemergence; for Barnyardgrass plant response rating: 62 g ai/ha, scale 0 to 100
Summary of the method: as §2

[8] = Postemergence, 500 g ai/ha, 0 to 100 scale (0 no effect, 100 complete control)
[9] = postemergence, 125 g ai/ha, about 10 days, visual rating on 0 to 100 scale (0 no effect, 100 complete control)
[10] = 31 g ai/ha, visual rating, scale 0 to 100 (0 no effect, 100 complete control), 13 to 15 days
[11] = 62 g ai/ha, scale 0 to 100 (0 no effect, 100 complete control), 13 to 15 days
[12] = 250 g ai/ha, scale 0 to 100, 0 is no effect, 100 is complete control
[13] = 250 g ai/ha, scale 0 to 100 (0 no effect, 100 complete control)
[14] = 125 g ai/ha, scale 0 to 100, 0 no effect, 100 complete control
[15] = Postemergence, 31 g ai/ha, visually evaluated after 13 to 15 days

O=C(NC1CC1)c1cc(CCCl)n(Cc2ccnc(C(F)(F)F)c2)n1 [Compound 144] was tested, and the “Foxtail, Giant plant response rating (0 to 100 scale)” value (foxtail, giant [1]) was 100, the “Foxtail, Giant plant response rating” value (foxtail, giant [1]) was 100 and the “Pigweed plant response rating (0 to 100 scale)” value (pigweed [2]) was 100. The “Pigweed plant response rating” value (pigweed [2]) was 100, the “Crabgrass, Large plant response rating” value (crabgrass, large; [8]) was 90 and the “Crabgrass, Large plant response rating” value (crabgrass, large; [9]) was 90. For the same compound, the “Corn plant response rating” value (corn; [8]) was 90, the “Corn plant response rating” value (corn; [9]) was 50 and the “Blackgrass plant response rating” value (blackgrass [3]; [10]) was 40. The “Blackgrass plant response rating” value (blackgrass [3]; [11]) was 40, the “Plant response rating, Blackgrass” value (blackgrass [3]; 13 to 15 days) was 90 and the “Blackgrass plant response rating” value (blackgrass [3]; [12]) was 90. For the same compound, the “Galium plant response rating” value (galium; [10]) was 30, the “Galium plant response rating” value (galium; [11]) was 80 and the “Plant response rating, Galium” value (galium; 13 to 15 days) was 100. The “Galium plant response rating” value (galium; [12]) was 100, the “Johnsongrass plant response rating” value (johnsongrass; [10]) was 0 and the “Johnsongrass plant response rating” value (johnsongrass; [11]) was 35. The “Plant response rating, Johnsongrass” value (johnsongrass; 13 to 15 days) was 75, the “Johnsongrass plant response rating” value (johnsongrass; [12]) was 100 and the “Pigweed plant response rating” value (pigweed [4]; [10]) was 98. For the same compound, the “Pigweed plant response rating” value (pigweed [4]; [11]) was 100, the “Plant response rating, Pigweed” value (pigweed [4]; 13 to 15 days) was 100 and the “Pigweed plant response rating” value (pigweed [4]; [12]) was 100. The “Plant response rating (scale of 0 to 100 where 0 is no effect and 100 is complete control), Blackgrass” value (blackgrass [5]) was 20, the “Blackgrass plant response rating” value (blackgrass [5]) was 5 and the “Plant response rating, Blackgrass” value (blackgrass [5]; [13]) was 35. For the same compound, the “Plant response rating, Blackgrass” value (blackgrass [5]; [14]) was 30, the “Plant response rating (scale of 0 to 100 where 0 is no effect and 100 is complete control), Wheat” value (wheat; [15]) was 5 and the “Plant response rating, Wheat” value (wheat) was 10. The “Wheat plant response rating” value (wheat) was 10, the “Plant response rating (scale of 0 to 100 where 0 is no effect and 100 is complete control), Foxtail, Giant” value (foxtail, giant [6]) was 5 and the “Foxtail, Giant plant response rating” value (foxtail, giant [6]) was 10. The “Plant response rating, Foxtail, Giant” value (foxtail, giant [6]; [13]) was 25, the “Plant response rating, Foxtail, Giant” value (foxtail, giant [6]; [14]) was 15 and the “Plant response rating (scale of 0 to 100 where 0 is no effect and 100 is complete control), Pigweed” value (pigweed [7]; [15]) was 65. The “Pigweed plant response rating” value (pigweed [7]) was 75, the “Plant response rating, Pigweed” value (pigweed [7]; [13]) was 95 and the “Plant response rating, Pigweed” value (pigweed [7]; [14]) was 85. For the same compound, the “Plant response rating (scale of 0 to 100 where 0 is no effect and 100 is complete control), Ragweed” value (ragweed; [15]) was 10, the “Plant response rating, Ragweed” value (ragweed; [13]) was 75 and the “Plant response rating, Ragweed” value (ragweed; [14]) was 35. The “Plant response rating (scale of 0 to 100 where 0 is no effect and 100 is complete control), Soybean” value (soybean; [15]) was 35, the “Plant response rating, Soybean” value (soybean) was 95 and the “Soybean plant response rating” value (soybean) was 75. For the same compound, the “Plant response rating (scale of 0 to 100 where 0 is no effect and 100 is complete control), Barnyardgrass” value (barnyardgrass) was 10, the “Barnyardgrass plant response rating” value (barnyardgrass) was 15 and the “Plant response rating, Barnyardgrass” value (barnyardgrass; [13]) was 15. For the same compound, the “Plant response rating, Barnyardgrass” value (barnyardgrass; [14]) was 10.
For CCOc1cc(C(=O)NOC(C)C)nn1Cc1ccnc(C(F)(F)F)c1 [Compound 153], the “Foxtail, Giant plant response rating (0 to 100 scale)” value (foxtail, giant [1]) was 100, the “Foxtail, Giant plant response rating” value (foxtail, giant [1]) was 100 and the “Pigweed plant response rating (0 to 100 scale)” value (pigweed [2]) was 100. For the same compound, the “Pigweed plant response rating” value (pigweed [2]) was 100, the “Crabgrass, Large plant response rating” value (crabgrass, large; [8]) was 100 and the “Crabgrass, Large plant response rating” value (crabgrass, large; [9]) was 100. The “Corn plant response rating” value (corn; [8]) was 100, the “Corn plant response rating” value (corn; [9]) was 90 and the “Blackgrass plant response rating” value (blackgrass [3]; [10]) was 80. The “Blackgrass plant response rating” value (blackgrass [3]; [11]) was 90, the “Plant response rating, Blackgrass” value (blackgrass [3]; 13 to 15 days) was 90 and the “Blackgrass plant response rating” value (blackgrass [3]; [12]) was 90. The “Galium plant response rating” value (galium; [10]) was 30, the “Galium plant response rating” value (galium; [11]) was 100 and the “Plant response rating, Galium” value (galium; 13 to 15 days) was 100. For the same compound, the “Galium plant response rating” value (galium; [12]) was 100, the “Johnsongrass plant response rating” value (johnsongrass; [10]) was 5 and the “Johnsongrass plant response rating” value (johnsongrass; [11]) was 35. The “Plant response rating, Johnsongrass” value (johnsongrass; 13 to 15 days) was 75, the “Johnsongrass plant response rating” value (johnsongrass; [12]) was 95 and the “Pigweed plant response rating” value (pigweed [4]; [10]) was 20. The “Pigweed plant response rating” value (pigweed [4]; [11]) was 95, the “Plant response rating, Pigweed” value (pigweed [4]; 13 to 15 days) was 100 and the “Pigweed plant response rating” value (pigweed [4]; [12]) was 98. The “Plant response rating (scale of 0 to 100 where 0 is no effect and 100 is complete control), Blackgrass” value (blackgrass [5]) was 0, the “Blackgrass plant response rating” value (blackgrass [5]) was 5 and the “Plant response rating, Blackgrass” value (blackgrass [5]; [13]) was 5. The “Plant response rating, Blackgrass” value (blackgrass [5]; [14]) was 5, the “Plant response rating, Wheat” value (wheat) was 15 and the “Wheat plant response rating” value (wheat) was 0. The “Plant response rating (scale of 0 to 100 where 0 is no effect and 100 is complete control), Foxtail, Giant” value (foxtail, giant [6]) was 5, the “Foxtail, Giant plant response rating” value (foxtail, giant [6]) was 5 and the “Plant response rating, Foxtail, Giant” value (foxtail, giant [6]; [13]) was 65. The “Plant response rating, Foxtail, Giant” value (foxtail, giant [6]; [14]) was 10, the “Pigweed plant response rating” value (pigweed [7]) was 25 and the “Plant response rating, Pigweed” value (pigweed [7]; [13]) was 80. The “Plant response rating, Pigweed” value (pigweed [7]; [14]) was 25, the “Plant response rating, Ragweed” value (ragweed; [13]) was 85 and the “Plant response rating, Ragweed” value (ragweed; [14]) was 40. For the same compound, the “Plant response rating, Soybean” value (soybean) was 40, the “Soybean plant response rating” value (soybean) was 35 and the “Plant response rating (scale of 0 to 100 where 0 is no effect and 100 is complete control), Barnyardgrass” value (barnyardgrass) was 5. The “Barnyardgrass plant response rating” value (barnyardgrass) was 10, the “Plant response rating, Barnyardgrass” value (barnyardgrass; [13]) was 15 and the “Plant response rating, Barnyardgrass” value (barnyardgrass; [14]) was 10.
